{"source": "patent US6420110B1", "about": "“Methods and reagents for isolating biologically active peptides” (GPC Biotech, Inc., priority 1998, dated 2002)", "test_system": "bovine capillary endothelial (BCE) cells", "test": "Inhibition of bFGF stimulated BCE cell proliferation in Transwells (CyQUANT)", "type": "cell-based", "details": "1 ng/ml bFGF, 72 hrs", "description": "COS-7 cells were transfected with pAM9-myc, pAM9-RGD and pAM9-K1 plasmids, respectively, that direct the expression and secretion of the Myc epitope-6xHis, the RGD and the angiostatin first kringle domain peptides. The transfected COS-7 cells were co-incubated in Transwells with BCE cells whose proliferation was stimulated by 1 ng/ml bFGF. As controls, untransfected COS-7 cells and bFGF stimulated BCE cells were similarly co-incubated and synthetic Myc-6xHis and RGD peptides as well as purified K1 were added to the media at the indicated concentrations. The proliferation of the bFGF stimulated BCE cells were measured 72 hrs later using the fluorescent CyQUANT proliferation kit (Molecular Probes).", "data": [{"sequence": "CDCRGDCFC [RGD peptide, positive control]", "values": [{"measurement": "inhibition of bFGF stimulated BCE cell proliferation", "setting": "peptide secreted from transfected COS-7 cells co-incubated in Transwells", "result": "inhibited"}, {"measurement": "inhibition of bFGF stimulated BCE cell proliferation", "setting": "synthetic or purified peptide added to the media, untransfected COS-7 cells co-incubated", "result": "inhibited"}]}]}
